In patent US12390472B2 (SUZHOU SINOVENT PHARMACEUTICALS CO., LTD., priority 2018, dated 2025):

Columns and labels:
EZH2 enzyme complex = EZH2 enzyme complex (Homo sapiens (Human), UniProt Q15910); assay: Test on EZH2 inhibitory activity (TR-FRET); type: biochemical; settings: EZH2 enzyme complex 25 ng/uL, histone H3 peptide 4 uM, SAM 2 uM, 300 min; read-out: IC50 of EZH2 inhibition
WSU-DLCL2 = assay: Methylated lysine of histone-H3 (H3K27Me3) detection by ELISA, WSU-DLCL2 cells; type: cell-based; settings: Homo sapiens, WSUDLCL2, 168 h; WSU-DLCL2, 7 days treatment, H3K27Me3 normalized to total histone-3; read-out: IC50 of cell methylation, WSU-DLCL2
Method: (§1) The operations for adherent cells and suspension cells cultured in 96-well plates were slightly different after they had been treated with compound (4-fold dilution 20 uM-0.009 nM, 3 duplicate wells) for 7 days, and the operations are summarized as follows: For adherent cells, after discarding the medium, 75 uL of 1-fold hypotonic lysis buffer (10 mM Tris-HCl, pH 7.5, containing halt protease inhibitor and PMSF with a final concentration of 1 mM) was added; the plate was frozen at −80° C. for at least 1 h or overnight; once the plate was taken away from the −80° C. environment, 120 uL (to a final volume of about 195 uL) of 1-fold hypotonic lysis buffer (containing protease inhibitor) was added, and the plate was thawed at room temperature and shaken for 2 min for mixing; and 8 uL (to a final volume of about 203 uL) of 2.5 M NaCl was added to each well to a final NaCl concentration of 100 mM and then the plate was shaken for an additional 2 min for mixing.
(§2) For suspension cells (final volume of medium was 100 uL/well), 25 uL of 5-fold hypotonic lysis buffer (50 mM Tris-HCl, pH 7.5, containing halt protease inhibitor and PMSF with a final concentration of 1 mM) was added, and the plate was frozen at −80° C. for at least 1 h or overnight. Once the plate was taken away from the −80° C. environment, 20 uL of 0.625 M NaCl was added to each well to a final NaCl concentration of about 100 mM, and the mixture was mixed well.
(§3) 75 uL or 100 uL of sample (with duplicate wells provided) was added to two 96-well ELISA plates (ThermoFisher Scientific; Immulon 4HBX 3885) and the plates were coated with total protein lysate and incubated overnight at 4° C. 50 uL of lysate was retained for protein quantitation if necessary. The sealing of the plates must be ensured. The plates were washed twice with 300 uL of 1×PBST (PBS containing 0.05% Tween 20) per well. Each well was blocked with 300 uL of dilution (PBS+2% BSA+0.05% Tween 20), incubated for 2 h at room temperature, and washed twice with 1×PBST. Primary antibodies were diluted with a dilution solution containing 1% BSA+0.05% Tween 20. 75-100 uL of anti-H3K27Me3 antibody (CST; 9733; 50% glycerol stock, 1:1,000) or anti-total histone-3 antibody (Abcam; ab1791; 50% glycerol stock, 1:10,000) was added to each well. The plates were incubated for 90 min at room temperature or incubated overnight at 4° C. The plates were washed three times with 1×PBST. 75-100 uL of anti-Rb-IgG-HRP secondary antibody (Cell Signaling Technology; 7074) was added per well, 1:2000 diluted secondary antibody for anti-H3K 27Me3 plate and 1:6000 diluted secondary antibody for anti-histone total histone-3 plate. The plates were incubated at room temperature for 90 min. The plate assayed with anti-histone-3 antibody was used to normalize the data for the corresponding plate assayed with anti-H3K 27me3. The plates must be washed at least three times with 1×PBST after primary or secondary antibody incubation. The plates were assayed by adding 75-100 uL of 3,3′,5,5′-tetramethylbenzidine substrate (CST or ThermoFisher Scientific; TMBS) per well and incubated away from light for 30 min at 37° C. The reaction was terminated by adding 100 uL of 0.5 M H2SO4 per well. The absorbance was read at 450 nm. Curve fitting was performed using Graph Pad program.

Pfeiffer = assay: Methylated lysine of histone-H3 (H3K27Me3) detection by ELISA, Pfeiffer cells; type: cell-based, human; settings: Homo sapiens, 168 h, 7 days treatment, H3K27Me3 normalized to total histone-3, read-out: IC50 of cell methylation, Pfeiffer
Method: as §1, §2, §3

Sequence of EZH2 enzyme complex (Q15910 whole entry): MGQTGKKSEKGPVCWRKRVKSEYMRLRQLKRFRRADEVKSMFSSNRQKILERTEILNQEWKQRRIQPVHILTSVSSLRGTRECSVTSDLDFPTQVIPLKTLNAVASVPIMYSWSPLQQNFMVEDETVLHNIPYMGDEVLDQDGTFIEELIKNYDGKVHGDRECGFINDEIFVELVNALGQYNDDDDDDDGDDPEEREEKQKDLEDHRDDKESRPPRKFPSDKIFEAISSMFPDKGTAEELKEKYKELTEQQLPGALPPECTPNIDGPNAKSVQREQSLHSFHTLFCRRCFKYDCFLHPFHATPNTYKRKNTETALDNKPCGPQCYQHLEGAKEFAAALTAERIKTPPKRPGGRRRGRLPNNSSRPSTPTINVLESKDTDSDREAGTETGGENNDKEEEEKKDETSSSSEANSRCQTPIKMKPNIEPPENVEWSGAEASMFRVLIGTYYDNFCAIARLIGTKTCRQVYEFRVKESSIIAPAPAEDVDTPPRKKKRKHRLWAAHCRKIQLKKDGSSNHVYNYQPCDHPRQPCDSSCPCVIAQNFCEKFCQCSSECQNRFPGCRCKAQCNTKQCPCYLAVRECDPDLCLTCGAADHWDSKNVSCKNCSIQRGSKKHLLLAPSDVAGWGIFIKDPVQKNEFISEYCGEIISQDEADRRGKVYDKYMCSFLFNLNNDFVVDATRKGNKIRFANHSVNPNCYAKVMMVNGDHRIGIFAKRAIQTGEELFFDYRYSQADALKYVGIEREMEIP
Sequence of EZH2 enzyme complex (O75530 whole entry partner): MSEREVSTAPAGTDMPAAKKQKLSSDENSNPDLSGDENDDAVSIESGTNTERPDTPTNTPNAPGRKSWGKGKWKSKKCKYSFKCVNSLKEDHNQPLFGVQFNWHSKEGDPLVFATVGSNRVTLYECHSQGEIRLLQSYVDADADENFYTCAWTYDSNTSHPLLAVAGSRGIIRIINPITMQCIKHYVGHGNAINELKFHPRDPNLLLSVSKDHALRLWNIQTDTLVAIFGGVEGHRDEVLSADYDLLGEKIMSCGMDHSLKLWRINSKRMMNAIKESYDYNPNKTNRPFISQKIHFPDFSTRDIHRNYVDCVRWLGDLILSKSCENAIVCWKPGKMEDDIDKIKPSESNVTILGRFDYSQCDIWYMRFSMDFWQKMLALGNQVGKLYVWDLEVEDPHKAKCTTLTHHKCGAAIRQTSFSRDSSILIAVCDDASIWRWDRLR
Sequence of EZH2 enzyme complex (Q15022 whole entry partner): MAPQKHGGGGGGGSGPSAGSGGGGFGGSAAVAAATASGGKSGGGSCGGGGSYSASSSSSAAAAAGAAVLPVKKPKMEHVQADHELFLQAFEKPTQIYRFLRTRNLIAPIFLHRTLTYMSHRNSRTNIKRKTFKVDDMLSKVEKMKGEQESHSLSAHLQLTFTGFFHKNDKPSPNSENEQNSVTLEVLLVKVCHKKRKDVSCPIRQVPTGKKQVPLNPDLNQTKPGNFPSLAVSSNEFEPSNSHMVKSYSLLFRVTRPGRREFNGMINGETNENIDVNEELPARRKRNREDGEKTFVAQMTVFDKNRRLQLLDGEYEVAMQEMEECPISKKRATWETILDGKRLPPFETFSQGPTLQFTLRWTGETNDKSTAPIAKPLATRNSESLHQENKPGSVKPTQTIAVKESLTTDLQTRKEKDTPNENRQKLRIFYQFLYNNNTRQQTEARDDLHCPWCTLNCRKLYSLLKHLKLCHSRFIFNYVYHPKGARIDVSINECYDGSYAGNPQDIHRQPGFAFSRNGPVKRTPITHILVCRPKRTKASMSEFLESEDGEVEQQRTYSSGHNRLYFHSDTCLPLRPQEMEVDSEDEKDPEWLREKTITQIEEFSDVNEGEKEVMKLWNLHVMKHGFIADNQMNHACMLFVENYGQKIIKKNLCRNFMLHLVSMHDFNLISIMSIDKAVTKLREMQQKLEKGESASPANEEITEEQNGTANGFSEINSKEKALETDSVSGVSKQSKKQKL

CCN(c1cc(C2CC2CN2C[C@@H](C)O[C@@H](C)C2)cc(C(=O)NCc2c(C)cc(C)[nH]c2=O)c1C)C1CCOCC1 (stereo partly drawn) [Example 75, N-((4,6-dimethyl-2-oxo-1,2-dihydropyridin-3-yl)methyl)-5-(2-((cis-2,6-dimethylmorpholinyl)methyl)cyclopropyl)-3-(ethyl(tetrahydro-2H-pyran-4-yl)amino)-2-methylbenzamide]
IC50 (EZH2 enzyme complex): 10 to 100 nM
IC50 (WSU-DLCL2): > 1000 nM
IC50 (Pfeiffer): < 50 nM

CCN(c1cc(O[C@H]2C[C@H](N3CCN(C(C)C)CC3)C2)cc(C(=O)NCc2c(C)cc(C)[nH]c2=O)c1C)C1CCOCC1 [Example 22, N-((4,6-dimethyl-2-oxo-1,2-dihydropyridin-3-yl)methyl)-3-(ethyl(tetrahydro-2H-pyran-4-yl)amino)-5-(trans-3-(4-isopropylpiperazin-1-yl)cyclobutoxy)-2-methylbenzamide]
IC50 (EZH2 enzyme complex): 10 to 100 nM
IC50 (WSU-DLCL2): 50 to 500 nM
IC50 (Pfeiffer): < 50 nM

CCN(c1cc(C2CC2CN2CCN(C)CC2)cc(C(=O)NCc2c(C)cc(C)[nH]c2=O)c1C)C1CCOCC1 (stereo not drawn) [Example 74, N-((4,6-dimethyl-2-oxo-1,2-dihydropyridin-3-yl)methyl)-3-(ethyl(tetrahydro-2H-pyran-4-yl)amino)-2-methyl-5-(2-((4-methylpiperazin-1-yl)methyl)cyclopropyl)benzamide]
IC50 (EZH2 enzyme complex): 10 to 100 nM
IC50 (WSU-DLCL2): 50 to 500 nM
IC50 (Pfeiffer): < 50 nM

CCN(c1cc(C2CCC2)cc(C(=O)NCc2c(C)cc(C)[nH]c2=O)c1C)C1CCOCC1 [Example 15, 5-cyclobutyl-N-((4,6-dimethyl-2-oxo-1,2-dihydropyridin-3-yl)methyl)-3-(ethyl(tetrahydro-2H-pyran-4-yl)amino)-2-methylbenzamide]
IC50 (EZH2 enzyme complex): 10 to 100 nM
IC50 (WSU-DLCL2): 50 to 500 nM
IC50 (Pfeiffer): < 50 nM

CCN(c1cc(O[C@H]2C[C@@H](CN3CCOCC3)C2)cc(C(=O)NCc2c(C)cc(C)[nH]c2=O)c1C)C1CCOCC1 [Example 6, N-((4,6-dimethyl-2-oxo-1,2-dihydropyridin-3-yl)methyl)-3-(ethyl(tetrahydro-2H-pyran-4-yl)amino)-2-methyl-5-(cis-3-(morpholinylmethyl)cyclobutoxy)benzamide]
IC50 (EZH2 enzyme complex): 10 to 100 nM
IC50 (WSU-DLCL2): 50 to 500 nM
IC50 (Pfeiffer): < 50 nM

CCN(c1cc(O[C@H]2C[C@@H](N3CCN(C)CC3)C2)cc(C(=O)NCc2c(C)cc(C)[nH]c2=O)c1C)C1CCOCC1 [Example 19, N-((4,6-dimethyl-2-oxo-1,2-dihydropyridin-3-yl)methyl)-3-(ethyl(tetrahydro-2H-pyran-4-yl)amino)-2-methyl-5-(cis-3-(4-methylpiperazin-1-yl)cyclobutoxy)benzamide]
IC50 (EZH2 enzyme complex): 10 to 100 nM
IC50 (WSU-DLCL2): 50 to 500 nM
IC50 (Pfeiffer): < 50 nM

CCN(c1cc(O[C@H]2C[C@H](N3CC4CCC(C3)O4)C2)cc(C(=O)NCc2c(C)cc(C)[nH]c2=O)c1Cl)C1CCOCC1 [Example 49, 5-(trans-3-(8-oxa-3-azabicyclo[3.2.1]octan-3-yl)cyclobutoxy)-2-chloro-N-((4,6-dimethyl-2-oxo-1,2-dihydropyridin-3-yl)methyl)-3-(ethyl(tetrahydro-2H-pyran-4-yl)amino)benzamide]
IC50 (EZH2 enzyme complex): 10 to 100 nM
IC50 (WSU-DLCL2): 50 to 500 nM
IC50 (Pfeiffer): > 1000 nM

CCN(c1cc(O[C@H]2C[C@H](N3C[C@@H](C)O[C@@H](C)C3)C2)cc(C(=O)NCc2c(C)cc(C)[nH]c2=O)c1Cl)C1CCOCC1 [Example 48, 2-chloro-N-((4,6-dimethyl-2-oxo-1,2-dihydropyridin-3-yl)methyl)-5-(trans-3-(cis-2,6-dimethylmorpholinyl)cyclobutoxy)-3-(ethyl(tetrahydro-2H-pyran-4-yl)amino)benzamide]
IC50 (EZH2 enzyme complex): 10 to 100 nM
IC50 (WSU-DLCL2): 50 to 500 nM
IC50 (Pfeiffer): > 1000 nM

CCN(c1cc(OC2CCC2)cc(C(=O)NCc2c(C)cc(C)[nH]c2=O)c1C)C1CCOCC1 [Example 1, 5-cyclobutoxy-N-((4,6-dimethyl-2-oxo-1,2-dihydropyridin-3-yl)methyl)-3-(ethyl(tetrahydro-2H-pyran-4-yl)amino)-2-methylbenzamide]
IC50 (EZH2 enzyme complex): 10 to 100 nM
IC50 (WSU-DLCL2): 50 to 500 nM
IC50 (Pfeiffer): < 50 nM

CCN(c1cc(O[C@H]2C[C@H](N3CCOCC3)C2)cc(C(=O)N(C)Cc2c(C)cc(C)[nH]c2=O)c1C)C1CCOCC1 [Example 51, N-((4,6-dimethyl-2-oxo-1,2-dihydropyridin-3-yl)methyl)-3-(ethyl(tetrahydro-2H-pyran-4-yl)amino)-N,2-dimethyl-5-(trans-3-morpholinylcyclobutoxy)benzamide]
IC50 (EZH2 enzyme complex): 100 to 1000 nM
IC50 (WSU-DLCL2): > 1000 nM
IC50 (Pfeiffer): > 1000 nM

CCN(c1cc([S+]([O-])C2CCC2)cc(C(=O)NCc2c(C)cc(C)[nH]c2=O)c1C)C1CCOCC1 (stereo not drawn) [Example 9, 5-(cyclobutylsulfinyl)-N-((4,6-dimethyl-2-oxo-1,2-dihydropyridin-3-yl)methyl)-3-(ethyl(tetrahydro-2H-pyran-4-yl)amino)-2-methylbenzamide]
IC50 (EZH2 enzyme complex): 100 to 1000 nM
IC50 (WSU-DLCL2): 500 to 1000 nM
IC50 (Pfeiffer): 500 to 1000 nM

CCN(c1cc(O[C@H]2C[C@H](N3CCN(C(C)=O)CC3)C2)cc(C(=O)NCc2c(C)cc(C)[nH]c2=O)c1C)C1CCOCC1 [Example 26, trans-5-(3-(4-acetylpiperazin-1-yl)cyclobutoxy)-N-((4,6-dimethyl-2-oxo-1,2-dihydropyridin-3-yl)methyl)-3-(ethyl(tetrahydro-2H-pyran-4-yl)amino)-2-methylbenzamide]
IC50 (EZH2 enzyme complex): 10 to 100 nM
IC50 (WSU-DLCL2): 50 to 500 nM
IC50 (Pfeiffer): < 50 nM

CCN(c1cc(O[C@H]2C[C@@H](N3CCNCC3)C2)cc(C(=O)NCc2c(C)cc(C)[nH]c2=O)c1C)C1CCOCC1 [Example 17, N-((4,6-dimethyl-2-oxo-1,2-dihydropyridin-3-yl)methyl)-3-(ethyl(tetrahydro-2H-pyran-4-yl)amino)-2-methyl-5-(cis-3-(piperazin-1-yl)cyclobutoxy)benzamide]
IC50 (EZH2 enzyme complex): < 10 nM
IC50 (WSU-DLCL2): 50 to 500 nM
IC50 (Pfeiffer): < 50 nM

CCN(c1cc(O[C@H]2C[C@@H](N3C[C@@H](C)O[C@@H](C)C3)C2)cc(C(=O)NCc2c(C)cc(C)[nH]c2=O)c1C)[C@@H]1C[C@@H](C)O[C@@H](C)C1 [Example 38, N-((4,6-dimethyl-2-oxo-1,2-dihydropyridin-3-yl)methyl)-5-((1S,3S)-3-((2S,6R)-2,6-dimethylmorpholinyl)cyclobutoxy)-3-(((2R,4s,6S)-2,6-dimethyltetrahydro-2H-pyran-4-yl)(ethyl)amino)-2-methylbenzamide]
IC50 (EZH2 enzyme complex): 100 to 1000 nM
IC50 (WSU-DLCL2): > 1000 nM
IC50 (Pfeiffer): 500 to 1000 nM

CCN(c1cc(O[C@H]2C[C@H](CN3CCCCC3)C2)cc(C(=O)NCc2c(C)cc(C)[nH]c2=O)c1C)C1CCOCC1 [Example 36, N-((4,6-dimethyl-2-oxo-1,2-dihydropyridin-3-yl)methyl)-3-(ethyl(tetrahydro-2H-pyran-4-yl)amino)-2-methyl-5-(trans-3-(piperidin-1-ylmethyl)cyclobutoxy)benzamide]
IC50 (EZH2 enzyme complex): 10 to 100 nM
IC50 (WSU-DLCL2): 50 to 500 nM
IC50 (Pfeiffer): < 50 nM

CCN(c1cc(C2CC2CN2CCC(F)CC2)cc(C(=O)NCc2c(C)cc(C)[nH]c2=O)c1C)C1CCOCC1 (stereo not drawn) [Example 79, N-((4,6-dimethyl-2-oxo-1,2-dihydropyridin-3-yl)methyl)-3-(ethyl(tetrahydro-2H-pyran-4-yl)amino)-5-(2-((4-fluoropiperidin-1-yl)methyl)cyclopropyl)-2-methylbenzamide]
IC50 (EZH2 enzyme complex): 10 to 100 nM
IC50 (WSU-DLCL2): 50 to 500 nM
IC50 (Pfeiffer): < 50 nM
